pIC50: −log10 of the molar value. “Also recorded” adds a separate entry of the source.
Experiments:
[1] = test system: 42D^ENZR cells; assay: Cell proliferation, BRN2 expressing 42D cells (crystal violet); format: cell-based; conditions: about 72 hours; for Growth Specificity: 42D (express BRN2) versus 16D (no BRN2) cells, result in words
Outline: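 42D^ENZR (~7000/well) and 16D^CRPC (~5000/well) cells plated, compound added next day from 3× media stocks. After ~72 hours, cells fixed with glutaraldehyde, stained with crystal violet, dye eluted in Sorensen solution; absorbance read at 590 nm.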

[2] = test system: BRN2 transcriptional activity; assay: BRN2-luciferase reporter activity in 42D^ENZR cells; format: cell-based; conditions: 24 hours
Text: Step 1: Reporter Activity
Decreased expression of luciferase protein is validated via western blot to confirm downregulation and avoid false positive molecules that inhibit luciferase protein activity and not BRN2-drive luciferase expression. Molecules are prioritized by their inhibition potency to measure direct interaction with BRN2 in Step 2.
(§1) In TABLES 1 and 2, in columns Met Stab % and T½, refers to compound's stability in MLM. There is a distinction in TABLES 1 and 2 difference between “Active” and “Specific” or “Specificity”. Some of the compounds were first tested to quantify inhibition of BRN2 transcriptional activity in a luciferase assay to determine BRN2 inhibition at 10 μM and 30 μM concentrations. […] Generally, compounds having low inhibitory activity were compounds with less than about ˜30% or activation at either concentration (i.e. 10 μM or 30 μM). Furthermore, some compounds that lacked specificity could also show off-target effects.

[3] = Metabolic stability in liver microsomes (MLM); format: in vitro ADME, mice; conditions: 0.25 mg/mL protein; for half-life at 1 μM: mouse, liver microsomes, pH 7.4, 1 μM compound, read-out: T1/2 in mins (MLM); for Met Stab % (60 mins) MLM: percent remaining at 60 min, 1 μM compound, 1 mM NADPH
Outline: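 Mouse liver microsomes (0.25 mg/mL protein) in 50 mM potassium phosphate pH 7.4 at 37 °C with 1 µM compound, 1 mM NADPH, 0.1% DMSO; sampled 0–60 min in duplicate. LC-MS/MS parent depletion gives half-life; CL'int in mL/min/kg scaled with 45 mg protein/g liver, 90 g liver.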

[4] = target: T1, BRN2 (Homo sapiens, UniProt P20265); assay: Drug Affinity Responsive Target Stability (DARTS) assay; conditions: printed in BLI binding column; 42D^ENZR lysate
T1 sequence (P20265 1-443): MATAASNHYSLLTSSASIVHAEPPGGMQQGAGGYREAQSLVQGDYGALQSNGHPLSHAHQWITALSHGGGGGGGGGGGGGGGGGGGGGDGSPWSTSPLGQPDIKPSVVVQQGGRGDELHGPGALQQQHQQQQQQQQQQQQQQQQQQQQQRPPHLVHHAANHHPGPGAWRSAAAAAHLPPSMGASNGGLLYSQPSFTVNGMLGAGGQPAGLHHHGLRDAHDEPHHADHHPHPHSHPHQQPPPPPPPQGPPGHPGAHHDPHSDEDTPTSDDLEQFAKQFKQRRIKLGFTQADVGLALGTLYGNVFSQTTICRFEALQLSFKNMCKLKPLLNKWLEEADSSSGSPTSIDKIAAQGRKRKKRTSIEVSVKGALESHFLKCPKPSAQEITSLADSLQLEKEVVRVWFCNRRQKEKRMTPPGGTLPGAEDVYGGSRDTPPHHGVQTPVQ
Experimental: Step 2: Drug Affinity Responsive Target Stability (DARTS) Assay
This in cell assay provides a yes/no answer to direct interaction between BRN2 inhibitor and protein.
1) Prepare and place the following on ice: • Pronase • TNC 10× • 500 mM Tris-HCl (pH 8.0) • 500 mM NaCl, 100 mM CaCl2 • DMSO • Drug • 10 mL NP40+Protease inhibitor+Phosphatase inhibitor solution (can store in 4° C. and use for up to 4 weeks): • 2 mL NP40 5× • 8 mL ddH2O • 1 PhosphoSTOP™ pill • 200 uL protease inhibitor 50×
2) Remove the growth medium from the cell plate (42D^ENZR) and add 10 mL of cold PBS/vanadate.
3) Scrape the cells. Remove the PBS-cell solution and add in a falcon tube.
4) Name a new 1.5 ml Eppendorf tube and put on ice to pre-chill.
5) Centrifuge the cells at 1500 for 5 minutes at 4° C. Remove supernatant and re-suspend the cells in 600 uL NP40 lysis buffer by pipetting up and down. If the cell pellet is small use less volume, for example 300 μl)
6) Transfer the lysing cells into the pre-chilled Eppendorf tube. Incubate on ice for 20 minutes. If not continuing the DARTS on the same day, you can put the lysate in −30 and work on it later.
Preparing Cell Lysates for DARTS:
7) Centrifuge the tube at maximum speed for 25-30 minutes at 4° C.
8) Discard the pellet (either transfer the supernatant in a new tube or just take out the pellet). […]
20) The samples are ready for Western blot gel running. […]

[5] = target: T1, BRN2; assay: BLI binding; conditions: result in words
[6] = test system: 16D^CRPC cells; assay: Cell proliferation, 16D cells that do not express BRN2 (crystal violet); format: cell-based
Experimental: Step 3: Cell Proliferation
Plate 42DE^NZR (˜7000 cells per well) and 16D^CRPC (˜5000 cells per well) cells in 96 well plate with a volume of 100 μL per well. • 2. Next day 1 mL aliquots of media are combined with 3× the desired concentration of compounds. The aliquots are vortexed and 50 μL of each 3× concentration is added to the 100 μL of media in each well to give the ix desired concentration.
The following are the desired concentrations:
0, 10 nM, 100 nM, 500 nM, 1 μM, 2.5 μM, 5 μM, 10 μM, 15 μM, 20 μM, 30 μM. • 3. Approximately 72 hours later, 17 μL of 10% Glutaraldehyde is added to each well and plates are placed on a shaker for 20-30 minutes. • 4. Media is washed off the fixed cells by slow submersion in a container of water. Then the water is removed by tapping the plate upside down. • 5. 75 μL of Crystal Violet™ solution is added into the 96 well plates and placed on a shaker for ˜30 minutes. • 6. Media is washed off the fixed cells by repeated slow submersion in a container of water and the plates are allowed to dry over-night. • 7. Next day, 75 μL of Sorensen Solution is accurately pipetted into each well. The plates placed on a shaker for ˜30 minutes. • 8. Absorbance is measured in the plate at 590 nm. Compounds that Show Specificity Towards 42DE^NZR Cells Vs 16D^CRPC Cells Progress to Step 4.
as §1

| Structure (SMILES) | Growth Specificity [1] | inhibition at 10 µM [2] [%] | inhibition at 30 µM [2] [%] | half-life at 1 μM [3] [min] | Met Stab % (60 mins) MLM [3] [%] | binding observed using DARTS assay [4] | BLI binding [5] | concentration above which 16D is affected ([6]; proliferation) [µM] | pIC50 ([1]; 42D cells, proliferation, read-out: 42D IC50) | effect on 16D ([6]; result in words) |
| --- | --- | --- | --- | --- | --- | --- | --- | --- | --- | --- |
| c1ccc2c(c1)CC/C2=N\Nc1nc2ccccc2s1 [VPC-7] | 42D not 16D | 82.1 | 97.8 |  |  |  |  |  |  |  |
| c1ccc2c(c1)CC/C2=N\Nc1nc2ccccc2[nH]1 [VPC-8] | 42D and 16D non-specific | 84.5 | 96.1 |  |  |  |  |  |  |  |
| FC(F)(F)c1ccc2c(c1)/C(=N\Nc1nc3ccccc3s1)CC2 [7-36] | Specific to 42D, but weak activity |  |  | > 60 | 78 | DARTS- good binding |  |  |  |  |
| O=C1/C(=N\Nc2nc3ccccc3s2)Cc2cc(C(F)(F)F)ccc21 [7-108] | Specific to 42D cells until 10 μM; also recorded: Specific to 42D cells up to 10 μM |  |  | > 60 | 68 |  | Positive binding | > 15 |  |  |
| c1ccc2c(c1)CC/C2=N\Nc1ccc2ccccc2n1 [VPC-39] | non-specific | 99 | 99.9 |  |  |  |  |  |  |  |
| Fc1ccc2c(c1)CC/C2=N/Nc1nc2ccccc2s1 [7-57] | Specific to 42D |  |  | 8 | 0 |  | Positive |  | 5.00 | no effect on 16D |
